The text below walks through data of paper PMC5452035, “Structural insight into recognition of phosphorylated threonine‐4 of RNA polymerase II C‐terminal domain by Rtt103p” (EMBO Reports, 2017).

Changes are numbered by the printed parent chain. Non-standard residues stand in square brackets, D forms with d. No end group written: not given here. pY = N[C@@H](Cc1ccc(OP(=O)(O)O)cc1)C(=O)O; FAM = 5,6-carboxyfluorescein

One test deals with T1, Rtt103p CID (Saccharomyces cerevisiae, UniProt Q05543).
T1 construct: Rtt103p CID (3‐131–6xHIS) was expressed and purified as previously described; 6xHis (C); made in house; host or cells: E. coli BL21-Codon Plus (DE3)-RIPL
T1 sequence (Q05543 3-131): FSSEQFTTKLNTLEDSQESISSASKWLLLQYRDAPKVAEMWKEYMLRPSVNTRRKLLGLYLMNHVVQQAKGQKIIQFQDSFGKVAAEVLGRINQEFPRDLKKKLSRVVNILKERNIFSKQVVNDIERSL
Kind of test: Equilibrium binding by fluorescence anisotropy (FA), wild-type Rtt103p CID. Also on record: species or system yeast. Background: Fluorescence polarisation rises when a labelled molecule tumbles more slowly, as on binding a larger partner.

Another test has as its target T2, Rtt103p CID Q19A (Saccharomyces cerevisiae, UniProt Q05543, Q19A).
T2 construct: Rtt103p CID (3‐131–6xHIS) was expressed and purified as previously described; 6xHis (C); made in house; host or cells: E. coli BL21-Codon Plus (DE3)-RIPL
T2 sequence (Q05543 3-131 Q19A): T1 sequence (Q05543 3-131) with Q17A
Kind of test: Equilibrium binding by fluorescence anisotropy (FA), Rtt103p CID Q19A mutant. The following applies: Rtt103p CID Q19A mutant titrated into 10 nM FAM‐labelled CTD peptide, 10°C, pH 6.8, ± standard deviation of the fit. Set-up: species or system yeast. The protocol:
The equilibrium binding of Rtt103p CID constructs to differently phosphorylated CTD was analysed by fluorescence anisotropy. The CTD peptides were N‐terminally labelled with the 5,6‐carboxyfluorescein (FAM). The measurements were conducted on a FluoroLog‐3 spectrofluorometer (Horiba Jobin‐Yvon Edison, NJ). The instrument was equipped with a thermostatted cell holder with a Neslab RTE7 water bath (Thermo Scientific). Samples were excited with vertically polarized light at 467 nm, and both vertical and horizontal emissions were recorded at 516 nm. All measurements were conducted at 10°C in 35 mM KH2PO4, 100 mM KCl (pH 6.8). Each data point is an average of three measurements. The experimental binding isotherms were analysed by DynaFit using 1:1 model with non‐specific binding 39.

For orientation: Kd means the constant that tells how readily two partners part at equilibrium. The low end stands for higher affinity, the high end for lower affinity. Compound `C[C@@H](OP(=O)(O)O)[C@H](NC(=O)[C@@H]1CCCN1C(=O)[C@H](CO)NC(=O)[C@H](Cc1ccc(O)cc1)NC(=O)[C@H](CO)NC(=O)[C@@H]1CCCN1C(=O)[C@H](CO)NC(=O)[C@@H](NC(=O)[C@@H]1CCCN1C(=O)[C@H](CO)NC(=O)[C@H](Cc1ccc(O)cc1)NC(=O)[C@H](CO)NC(=O)[C@@H]1CCCN1C(=O)c1ccc2c(c1)C(=O)OC21c2ccc(O)cc2Oc2cc(O)ccc21)[C@@H](C)OP(=O)(O)O)C(=O)N[C@@H](CO)C(=O)N1CCC[C@H]1C(=O)N[C@@H](CO)C(=O)O` [Doubly phosphorylated pThr4‐CTD] registered a Kd at Rtt103p CID of 6 ± 0.2 µM.

For the compound `C[C@@H](O)[C@H](NC(=O)[C@@H]1CCCN1C(=O)[C@H](CO)NC(=O)[C@H](Cc1ccc(O)cc1)NC(=O)[C@H](CO)NC(=O)[C@@H]1CCCN1C(=O)[C@H](CO)NC(=O)[C@@H](NC(=O)[C@@H]1CCCN1C(=O)[C@H](COP(=O)(O)O)NC(=O)[C@H](Cc1ccc(O)cc1)NC(=O)[C@H](CO)NC(=O)[C@@H]1CCCN1C(=O)c1ccc2c(c1)C(=O)OC21c2ccc(O)cc2Oc2cc(O)ccc21)[C@@H](C)OP(=O)(O)O)C(=O)N[C@@H](CO)C(=O)N1CCC[C@H]1C(=O)N[C@@H](CO)C(=O)O` [PS YpSPpTSPS YSPTSPS], the affinity at Rtt103p CID, expressed as Kd, was 43 ± 2 µM.

On Rtt103p CID, `C[C@@H](O)[C@H](NC(=O)[C@@H]1CCCN1C(=O)[C@H](CO)NC(=O)[C@H](Cc1ccc(O)cc1)NC(=O)[C@H](CO)NC(=O)[C@@H]1CCCN1C(=O)[C@H](CO)NC(=O)[C@@H](NC(=O)[C@@H]1CCCN1C(=O)[C@H](COP(=O)(O)O)NC(=O)[C@H](Cc1ccc(O)cc1)NC(=O)[C@H](CO)NC(=O)[C@@H]1CCCN1C(=O)c1ccc2c(c1)C(=O)OC21c2ccc(O)cc2Oc2cc(O)ccc21)[C@@H](C)O)C(=O)N[C@@H](CO)C(=O)N1CCC[C@H]1C(=O)N[C@@H](CO)C(=O)O` [pSer2‐CTD] had a Kd of 6 ± 0.2 µM.

For the compound `C[C@@H](O)[C@H](NC(=O)[C@@H]1CCCN1C(=O)[C@H](CO)NC(=O)[C@H](Cc1ccc(O)cc1)NC(=O)[C@H](CO)NC(=O)[C@@H]1CCCN1C(=O)[C@H](CO)NC(=O)[C@@H](NC(=O)[C@@H]1CCCN1C(=O)[C@H](CO)NC(=O)[C@H](Cc1ccc(O)cc1)NC(=O)[C@H](CO)NC(=O)[C@@H]1CCCN1C(=O)c1ccc2c(c1)C(=O)OC21c2ccc(O)cc2Oc2cc(O)ccc21)[C@@H](C)OP(=O)(O)O)C(=O)N[C@@H](CO)C(=O)N1CCC[C@H]1C(=O)N[C@@H](CO)C(=O)O` [pThr4‐CTD], the figures for the Kd at Rtt103p CID and at Rtt103p CID Q19A were 15 ± 1 µM and 48 ± 5 µM, respectively.

Take “PS pYSPTSPS YSPTSPS: FAM‐labelled CTD peptide with the pTyr1 mark in the central heptad ({FAM}-PS[pY]SPTSPSYSPTSPS)”: the “binding with Rtt103p (in words)” value in the test with Rtt103p CID (fluorescence anisotropy, 10 nM FAM‐labelled CTD peptide, 10°C, pH 6.8) is on record as “completely abolished the binding”.
